Where two headings read alike, the source gives them in different places. *1 amine or outer side, *2 acyl side, *3 side chain or, on linkers, in order; H or OH if unused. Where a SMILES comes first, the peptide text is derived from it. Bridges are numbered along the chain shown (N, C = ends). [ ]: non-standard residue; d: D form. The star is where a group is joined. X61 = Cc1nc2c(F)cc(-c3ccc(Cl)cc3C[C@@H](C(=O)[*:2])N(C)[*:1])cc2n1C(C)C; X14 = Cc1nc(C)c(-c2ccc(Cl)cc2C[C@@H](C(=O)[*:2])N(C)[*:1])s1; X83 = CN([C@@H](Cc1cc(Cl)ccc1-c1cnn2c1COCC2)C(=O)[*:2])[*:1]; X89 = CN([C@@H](Cc1cc(Cl)ccc1-c1cnn(CC#N)c1)C(=O)[*:2])[*:1]; NMe3Pal(2-OiBu,5-Cl) = CN[C@@H](Cc1cc(Cl)cnc1OCC(C)C)C(=O)O; NMehhhLys(Me) = CN([C@@H](CCCCCCCN(C)[*:3])C(=O)[*:2])[*:1]; Spiro(3.3)heptane2CO(2-CF3) = O=C(C1(C(F)(F)F)CC2(CCC2)C1)*; X2 = CN([C@@H](Cc1cc(Cl)ccc1-c1ccc2ncnn2c1)C(=O)[*:2])[*:1]; X51 = CSc1cncc(-c2ccc(Cl)cc2C[C@@H](C(=O)[*:2])N(C)[*:1])c1; X22 = CN([C@@H](Cc1cc(Cl)ccc1-c1cnn(C)c1)C(=O)[*:2])[*:1]; NMe3Pal(2-OMe,5-Cl) = CN[C@@H](Cc1cc(Cl)cnc1OC)C(=O)O; Oxane2carbonyl(2R-CF3) = O=C([C@@]1(C(F)(F)F)CCCCO1)*; Cyclobutanecarbonyl(1-CF3) = O=C(C1(C(F)(F)F)CCC1)*; cBuCO(3,3-F2-1-CF3) = O=C(C1(C(F)(F)F)CC(F)(F)C1)*; X25 = CCOc1ncc(Cl)cc1C[C@@H](C(=O)[*:2])N(C)[*:1]; Pro(trans-4-F) = O=C(O)[C@@H]1C[C@@H](F)CN1; Gly(cPr) = N[C@H](C(=O)O)C1CC1
Columns and labels:
NCI-H1048 cells = test: MTT proliferation assay, NCI-H1048; assay type: cell-based; conditions: 5 days compound exposure, 1:3 serial dilution starting at 10 μM;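 further: Dose-response in 96-well plates over 8 or 10 concentration points, with exposure spanning 3-4 cell doublings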
WI-38 cells = test: MTT proliferation assay, WI-38; assay type: cell-based; conditions: 3 days compound exposure, 1:3 serial dilution starting at 10 μM;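 further: Eight- or ten-point dilution series, with exposure length chosen to span about three to four cell doublings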
CyclinE1/CDK2 = target: T1, CyclinE1/CDK2 (Homo sapiens, UniProt P24864); test: Fluorescence Polarization (FP) competitive binding assay, Cyclin E1/Cdk2;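 further: readings taken after two-hour equilibration at room temperature in HEPES buffer with NaCl, DTT, NP-40 and BSA, IC50 fitted from eight-concentration serial dilution series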
T1 construct: purchased Eurofins, discovery 14-475

OVCAR3 cells = test: MTT proliferation assay, OVCAR3; assay type: cell-based; conditions: 5 days compound exposure, 1:3 serial dilution starting at 10 μM;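 further: compound given as an 8- or 10-point series, one day after plating, with exposure covering roughly 3-4 cell doublings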
CyclinB1/CDK1 = target: T2, CyclinB1/CDK1 (Homo sapiens, UniProt P14635); test: Fluorescence Polarization (FP) competitive binding assay, Cyclin B1/Cdk1;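 further: fluorescence polarization read after equilibration at room temperature, with IC50 taken from serially diluted dose-response curves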
T2 construct: purchased Eurofins, discovery 14-450

CyclinA2/CDK2 = target: T3, CyclinA2/CDK2 (Homo sapiens, UniProt P20248); test: Fluorescence Polarization (FP) competitive binding assay, Cyclin A2/Cdk2;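 further: plates equilibrated two hours at room temperature before polarization reading, IC50 fitted from eight-concentration compound titration curves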
T3 construct: purchased CRELUX Protein Services

[1] = 10 nM Cyclin E1/Cdk2, 2 nM FAM probe, average of 2-3 independent experiments, read-out: Cyclin E FP IC50
[2] = 10 nM Cyclin B1/Cdk1, 2 nM FAM probe; average of 2-3 independent experiments; read-out: Cyclin B FP IC50
[3] = 8 nM Cyclin A2/Cdk2, 2 nM FAM probe, average of 2-3 independent experiments, read-out: Cyclin A FP IC50
[4] = read-out: Cyclin B FP IC50; 10 nM Cyclin B1/Cdk1, 2 nM FAM probe; average of 2-3 independent experiments
[5] = read-out: Cyclin A FP IC50, 8 nM Cyclin A2/Cdk2, 2 nM FAM probe, average of 2-3 independent experiments

SMILES	GI50 (NCI-H1048 cells) [nM]	GI50 (WI-38 cells) [nM]	IC50 (CyclinE1/CDK2; [1]) [nM]	GI50 (OVCAR3 cells) [nM]	IC50 (CyclinB1/CDK1; [2]) [nM]	IC50 (CyclinA2/CDK2; [3]) [nM]	IC50 (CyclinE1/CDK2) [nM]	IC50 (CyclinB1/CDK1; [4]) [nM]	IC50 (CyclinA2/CDK2) [nM]	IC50 (CyclinA2/CDK2; [5]) [nM]
CSc1cncc(-c2ccc(Cl)cc2C[C@H]2C(=O)N(C)CCCCCCC[C@H](N(C)C(=O)[C@@H](NC(=O)[C@@H]3C[C@@H](F)CN3C(=O)C3(C(F)(F)F)CC(F)(F)C3)C3CC3)C(=O)N[C@@H](CC(C)C)C(=O)N2C)c1 [Example 202] ({cBuCO(3,3-F2-1-CF3)}-[Pro(trans-4-F)][Gly(cPr)][NMehhhLys(Me)]L[X51]; lactam 3-C)	40	9110	1490	60	20	50	–	–	–	–
CC(C)C[C@@H]1NC(=O)[C@@H](N(C)C(=O)[C@@H](NC(=O)[C@@H]2C[C@@H](F)CN2C(=O)C2(C(F)(F)F)CC3(CCC3)C2)C2CC2)CCCCCCCN(C)C(=O)[C@H](Cc2cc(Cl)ccc2-c2cnn(C)c2)N(C)C1=O [Example 203] ({Spiro(3.3)heptane2CO(2-CF3)}-[Pro(trans-4-F)][Gly(cPr)][NMehhhLys(Me)]L[X22]; lactam 3-C)	60	3700	–	50	–	–	1260	20	40	–
Cc1nc(C)c(-c2ccc(Cl)cc2C[C@H]2C(=O)N(C)CCCCCCC[C@H](N(C)C(=O)[C@@H](NC(=O)[C@@H]3C[C@@H](F)CN3C(=O)C3(C(F)(F)F)CC(F)(F)C3)C3CC3)C(=O)N[C@@H](CC(C)C)C(=O)N2C)s1 [Example 207] ({cBuCO(3,3-F2-1-CF3)}-[Pro(trans-4-F)][Gly(cPr)][NMehhhLys(Me)]L[X14]; lactam 3-C)	30	4940	2730	40	20	50	–	–	–	–
CC(C)C[C@@H]1NC(=O)[C@@H](N(C)C(=O)[C@@H](NC(=O)[C@@H]2C[C@@H](F)CN2C(=O)C2(C(F)(F)F)CC(F)(F)C2)C2CC2)CCCCCCCN(C)C(=O)[C@H](Cc2cc(Cl)ccc2-c2cnn(CC#N)c2)N(C)C1=O [Example 216] ({cBuCO(3,3-F2-1-CF3)}-[Pro(trans-4-F)][Gly(cPr)][NMehhhLys(Me)]L[X89]; lactam 3-C)	10	15600	–	10	–	–	470	20	30	–
CCN(C(=O)[C@@H](NC(=O)[C@@H]1C[C@@H](F)CN1C(=O)C1(C(F)(F)F)CC(F)(F)C1)C1CC1)[C@H]1CCCCCCCN(C)C(=O)[C@H](Cc2cc(Cl)cnc2OC2CC2)N(C)C(=O)[C@H](CC(C)C)NC1=O [Example 219]	40	14100	–	80	–	–	1430	20	100	–
CCN(C(=O)[C@@H](NC(=O)[C@@H]1C[C@@H](F)CN1C(=O)C1(C(F)(F)F)CCC1)C1CC1)[C@H]1CCCCCCCN(C)C(=O)[C@H](Cc2cc(Cl)cnc2OC2CC2)N(C)C(=O)[C@H](CC(C)C)NC1=O [Example 220]	30	5200	–	70	–	–	680	20	90	–
CCN(C(=O)[C@@H](NC(=O)[C@@H]1C[C@@H](F)CN1C(=O)[C@@]1(C(F)(F)F)CCCCO1)C1CC1)[C@H]1CCCCCCCN(C)C(=O)[C@H](Cc2cc(Cl)cnc2OC2CC2)N(C)C(=O)[C@H](CC(C)C)NC1=O [Example 221]	20	16600	–	30	–	–	180	20	60	–
COc1ncc(Cl)cc1C[C@H]1C(=O)N(C)CCCCCCC[C@H](N(C)C(=O)[C@@H](NC(=O)[C@@H]2C[C@@H](F)CN2C(=O)[C@@]2(C(F)(F)F)CCCCO2)C2CC2)C(=O)N[C@@H](CC(C)C)C(=O)N1C [Example 223] ({Oxane2carbonyl(2R-CF3)}-[Pro(trans-4-F)][Gly(cPr)][NMehhhLys(Me)]L[NMe3Pal(2-OMe,5-Cl)]; lactam 3-C)	10	7760	–	10	–	–	100	20	–	20
COc1ncc(Cl)cc1C[C@H]1C(=O)N(C)CCCCCCC[C@H](N(C)C(=O)[C@@H](NC(=O)[C@@H]2C[C@@H](F)CN2C(=O)C2(C(F)(F)F)CCC2)C2CC2)C(=O)N[C@@H](CC(C)C)C(=O)N1C [Example 224] ({Cyclobutanecarbonyl(1-CF3)}-[Pro(trans-4-F)][Gly(cPr)][NMehhhLys(Me)]L[NMe3Pal(2-OMe,5-Cl)]; lactam 3-C)	10	12400	100	10	20	30	–	–	–	–
CCOc1ncc(Cl)cc1C[C@H]1C(=O)N(C)CCCCCCC[C@H](N(C)C(=O)[C@@H](NC(=O)[C@@H]2C[C@@H](F)CN2C(=O)[C@@]2(C(F)(F)F)CCCCO2)C2CC2)C(=O)N[C@@H](CC(C)C)C(=O)N1C [Example 226] ({Oxane2carbonyl(2R-CF3)}-[Pro(trans-4-F)][Gly(cPr)][NMehhhLys(Me)]L[X25]; lactam 3-C)	20	8390	–	30	–	–	100	20	–	20
CCOc1ncc(Cl)cc1C[C@H]1C(=O)N(C)CCCCCCC[C@H](N(C)C(=O)[C@@H](NC(=O)[C@@H]2C[C@@H](F)CN2C(=O)C2(C(F)(F)F)CCC2)C2CC2)C(=O)N[C@@H](CC(C)C)C(=O)N1C [Example 227] ({Cyclobutanecarbonyl(1-CF3)}-[Pro(trans-4-F)][Gly(cPr)][NMehhhLys(Me)]L[X25]; lactam 3-C)	20	14100	–	40	–	–	120	20	30	–
CC(C)COc1ncc(Cl)cc1C[C@H]1C(=O)N(C)CCCCCCC[C@H](N(C)C(=O)[C@@H](NC(=O)[C@@H]2C[C@@H](F)CN2C(=O)C2(C(F)(F)F)CCC2)C2CC2)C(=O)N[C@@H](CC(C)C)C(=O)N1C [Example 230] ({Cyclobutanecarbonyl(1-CF3)}-[Pro(trans-4-F)][Gly(cPr)][NMehhhLys(Me)]L[NMe3Pal(2-OiBu,5-Cl)]; lactam 3-C)	40	5050	–	90	–	–	140	20	30	–
Cc1nc2c(F)cc(-c3ccc(Cl)cc3C[C@H]3C(=O)N(C)CCCCCCC[C@H](N(C)C(=O)[C@@H](NC(=O)[C@@H]4C[C@@H](F)CN4C(=O)C4(C(F)(F)F)CC(F)(F)C4)C4CC4)C(=O)N[C@@H](CC(C)C)C(=O)N3C)cc2n1C(C)C [Example 231] ({cBuCO(3,3-F2-1-CF3)}-[Pro(trans-4-F)][Gly(cPr)][NMehhhLys(Me)]L[X61]; lactam 3-C)	20	13400	–	40	–	–	2940	20	60	–
CC(C)C[C@@H]1NC(=O)[C@@H](N(C)C(=O)[C@@H](NC(=O)[C@@H]2C[C@@H](F)CN2C(=O)C2(C(F)(F)F)CC(F)(F)C2)C2CC2)CCCCCCCN(C)C(=O)[C@H](Cc2cc(Cl)ccc2-c2ccc3ncnn3c2)N(C)C1=O [Example 232] ({cBuCO(3,3-F2-1-CF3)}-[Pro(trans-4-F)][Gly(cPr)][NMehhhLys(Me)]L[X2]; lactam 3-C)	50	11600	–	80	–	–	2870	20	50	–
CC(C)C[C@@H]1NC(=O)[C@@H](N(C)C(=O)[C@@H](NC(=O)[C@@H]2C[C@@H](F)CN2C(=O)C2(C(F)(F)F)CC(F)(F)C2)C2CC2)CCCCCCCN(C)C(=O)[C@H](Cc2cc(Cl)ccc2-c2cnn3c2COCC3)N(C)C1=O [Example 233] ({cBuCO(3,3-F2-1-CF3)}-[Pro(trans-4-F)][Gly(cPr)][NMehhhLys(Me)]L[X83]; lactam 3-C)	30	15200	–	30	–	–	1600	20	50	–

Source: patent publication US20240408169A1 (priority 2023, published 2024)
